Assay results: the NIST ThermoML archive (doi:10.1021/je8009545)
Numbers after ± are expanded uncertainties.

Assays:
[1] = Gas; for mass density: Gas pipette; for viscosity: Oscillating disk viscometry
[2] = xn = mol fraction of the nth substance listed; conditions: Gas, x2 = 0; for mass density: Gas pipette; for viscosity: Oscillating disk viscometry

N#N [nitrogen]
[1]
Conditions | mass density [kg/m3] | viscosity [mPa·s]
298.15 K, 101 kPa | 1.178 ± 0.072 | 0.01786 ± 0.00057
298.15 K, 240 kPa | 2.833 ± 0.17 | 0.01788 ± 0.00057
298.15 K, 672 kPa | 7.705 ± 0.46 | 0.01794 ± 0.00057
323.15 K, 101 kPa | 0.858 ± 0.053 | 0.01901 ± 0.0006
323.15 K, 290 kPa | 3.114 ± 0.19 | 0.01904 ± 0.0006
323.15 K, 466 kPa | 4.925 ± 0.3 | 0.01906 ± 0.0006
323.15 K, 856 kPa | 9.024 ± 0.54 | 0.01911 ± 0.0006
348.15 K, 101 kPa | 0.761 ± 0.047 | 0.0201 ± 0.00062
348.15 K, 518 kPa | 5.043 ± 0.3 | 0.02016 ± 0.00062
348.15 K, 1010 kPa | 9.8 ± 0.59 | 0.02022 ± 0.00062
348.15 K, 2028 kPa | 19.63 ± 1.2 | 0.02037 ± 0.00063
373.15 K, 101 kPa | 0.633 ± 0.039 | 0.02116 ± 0.00065
373.15 K, 495 kPa | 4.527 ± 0.27 | 0.02121 ± 0.00065
373.15 K, 1000 kPa | 8.832 ± 0.53 | 0.02126 ± 0.00065
373.15 K, 2006 kPa | 18.01 ± 1.1 | 0.0214 ± 0.00065
373.15 K, 2930 kPa | 26.15 ± 1.6 | 0.02152 ± 0.00066
373.15 K, 3985 kPa | 35.64 ± 2.1 | 0.02168 ± 0.00066
373.15 K, 4966 kPa | 44.7 ± 2.7 | 0.02184 ± 0.00066
398.15 K, 101 kPa | 0.727 ± 0.045 | 0.02219 ± 0.00067
398.15 K, 520 kPa | 4.329 ± 0.26 | 0.02222 ± 0.00067
398.15 K, 1003 kPa | 8.657 ± 0.52 | 0.02228 ± 0.00067
398.15 K, 2000 kPa | 16.49 ± 0.99 | 0.0224 ± 0.00068
398.15 K, 3473 kPa | 28.94 ± 1.7 | 0.02259 ± 0.00068
398.15 K, 4849 kPa | 40.28 ± 2.4 | 0.02278 ± 0.00068
423.15 K, 101 kPa | 0.568 ± 0.035 | 0.02318 ± 0.00069
423.15 K, 550 kPa | 4.226 ± 0.25 | 0.02322 ± 0.00069
423.15 K, 1032 kPa | 8.294 ± 0.5 | 0.02328 ± 0.0007
423.15 K, 2012 kPa | 15.86 ± 0.95 | 0.02338 ± 0.0007
423.15 K, 3435 kPa | 26.9 ± 1.6 | 0.02354 ± 0.0007
423.15 K, 4832 kPa | 37.69 ± 2.3 | 0.02373 ± 0.00071

N#N [nitrogen] + COC
[2]
Conditions | mass density [kg/m3] | viscosity [mPa·s]
298.15 K, 101 kPa | 1.178 ± 0.072 | 0.01786 ± 0.00057
298.15 K, 240 kPa | 2.833 ± 0.17 | 0.01788 ± 0.00057
298.15 K, 672 kPa | 7.705 ± 0.46 | 0.01794 ± 0.00057
323.15 K, 101 kPa | 0.858 ± 0.053 | 0.01901 ± 0.0006
323.15 K, 290 kPa | 3.114 ± 0.19 | 0.01904 ± 0.0006
323.15 K, 466 kPa | 4.925 ± 0.3 | 0.01906 ± 0.0006
323.15 K, 856 kPa | 9.024 ± 0.54 | 0.01911 ± 0.0006
348.15 K, 101 kPa | 0.761 ± 0.047 | 0.0201 ± 0.00062
348.15 K, 518 kPa | 5.043 ± 0.3 | 0.02016 ± 0.00062
348.15 K, 1010 kPa | 9.8 ± 0.59 | 0.02022 ± 0.00062
348.15 K, 2028 kPa | 19.63 ± 1.2 | 0.02037 ± 0.00063
373.15 K, 101 kPa | 0.633 ± 0.039 | 0.02116 ± 0.00065
373.15 K, 495 kPa | 4.527 ± 0.27 | 0.02121 ± 0.00065
373.15 K, 1000 kPa | 8.832 ± 0.53 | 0.02126 ± 0.00065
373.15 K, 2006 kPa | 18.01 ± 1.1 | 0.0214 ± 0.00065
373.15 K, 2930 kPa | 26.15 ± 1.6 | 0.02152 ± 0.00066
373.15 K, 3985 kPa | 35.64 ± 2.1 | 0.02168 ± 0.00066
373.15 K, 4966 kPa | 44.7 ± 2.7 | 0.02184 ± 0.00066
398.15 K, 101 kPa | 0.727 ± 0.045 | 0.02219 ± 0.00067
398.15 K, 520 kPa | 4.329 ± 0.26 | 0.02222 ± 0.00067
398.15 K, 1003 kPa | 8.657 ± 0.52 | 0.02228 ± 0.00067
398.15 K, 2000 kPa | 16.49 ± 0.99 | 0.0224 ± 0.00068
398.15 K, 3473 kPa | 28.94 ± 1.7 | 0.02259 ± 0.00068
398.15 K, 4849 kPa | 40.28 ± 2.4 | 0.02278 ± 0.00068
423.15 K, 101 kPa | 0.568 ± 0.035 | 0.02318 ± 0.00069
423.15 K, 550 kPa | 4.226 ± 0.25 | 0.02322 ± 0.00069
423.15 K, 1032 kPa | 8.294 ± 0.5 | 0.02328 ± 0.0007
423.15 K, 2012 kPa | 15.86 ± 0.95 | 0.02338 ± 0.0007
423.15 K, 3435 kPa | 26.9 ± 1.6 | 0.02354 ± 0.0007
423.15 K, 4832 kPa | 37.69 ± 2.3 | 0.02373 ± 0.00071
